Measured values reported in US7589080B2, “β-cyclodextrin compositions, and use to prevent transmission of sexually transmitted diseases” (priority 2000, dated 2009).

What was measured:
vaginal epithelium = assay: Vaginal epithelial toxicity (ethidium bromide homodimer-1 staining); type: in vivo, CF-1 mice; conditions: 1% (w/v), intravaginal, 15 min
Procedure: CF-1 mice were pretreated with 2.5 mg progestin; one week later, three groups of three mice each were inoculated with 50 Tl of either PBS, 1% (w/v) nonoxynol-9, or 3% (w/v) 2-OH-βCD (20 mM). Each test solution also contained the membrane-impermeant DNA binding fluorescent dye, ethidium bromide homodimer-1 (20 TM, Molecular Probes; Eugene Oreg.; Hyytinen et al., supra, 1994). Fifteen min following exposure to the test agents the mice were euthanized, the vaginas were dissected and opened longitudinally, and viewed using a fluorescent microscope and TRITC filter set.
To examine the effect of a βCD on the vaginal epithelium, CF-1 mice were pretreated with progesterone and one week later were inoculated with 50 Tl of either phosphate buffered saline (PBS), 1% (w/v) nonoxynol-9, or 3% (w/v) 2-OH-βCD (20 mM) containing the membrane impermeant DNA binding fluorescent dye, ethidium bromide homodimer-1. The vaginas of the mice were viewed by fluorescent microscopy.

HIV = conditions: inhibition of sphingolipid synthesis; cited from earlier work

Compound	Damage to vaginal epithelium (vaginal epithelium)	Reduction of HIV infection of CD4+ human cells (HIV) [%]
nonoxynol-9	considerable epithelial damage	
CCCCCCCCCCCCCCCC(=O)NC(CN1CCOCC1)C(O)c1ccccc1 (centres unmarked) [PPMP, 1-phenyl-2-hexadecanoylamino-3-morpholino-1-propanol]		50
